Earlier results, collected in patent US20240408053A1, “ENTERITIS-SUPPRESSING COMPOSITION” (KOBE GAKUIN EDUCATIONAL FOUNDATION, priority 2021, published 2024).

Conditions: blood metabolites after oral sesaminol in rats, for a short time (NPL 11); cited from earlier work

For 5″-methylated sesamin-6-catechol, the “antioxidant activity relative to that of sesaminol” value is listed as “approximately 1.6 times”.

For sesaminol-6-catechol, the “antioxidant activity relative to that of sesaminol” value is listed as “approximately 1.6 times”.
